This is an account of results in ChEMBL document CHEMBL1152162, “Coagulanolide, a withanolide from Withania coagulans fruits and antihyperglycemic activity” (2008).

Common to all, as to assay type: functional
Test [1] concerns Rattus norvegicus. As to the kind of experiment: Antihyperglycemic activity in Sprague-Dawley normoglycemic rat model assessed as glucose tolerance at 100 mg/kg, po administered 30 mins before sucrose-load.
Test [2] has as its system Rattus norvegicus. Kind of test: Antihyperglycemic activity in streptozotocin-induced diabetic Sprague-Dawley rat model assessed as glucose tolerance at 100 mg/kg, po administered 30 mins before sucrose-load.
Test [3] concerns Mus musculus. As to the kind of experiment: Antihyperglycemic activity in diabetic C57BL/KsJ-db/db mouse model assessed as decrease in blood glucose AUC at 50 mg/kg, po for 10 days relative to control. Details: scale not given: the % may be the effect or the level left.
For test [4], the system named is Mus musculus. Kind of test: Antihyperglycemic activity in diabetic C57BL/KsJ-db/db mouse model assessed as increase in high-density lipoprotein cholesterol at 50 mg/kg, po for 10 days relative to control.
Test [5] relates to Mus musculus. Kind of test: Antihyperglycemic activity in diabetic C57BL/KsJ-db/db mouse model assessed as improvement in glucose tolerance at 50 mg/kg, po for 10 days relative to control by OGTT.
The subject of test [6] is Mus musculus. Kind of test: Antihyperglycemic activity in diabetic C57BL/KsJ-db/db mouse model assessed as decrease in postprandial blood glucose level at 50 mg/kg, po for 10 days relative to control. The arrangement: scale not given: the % may be the effect or the level left.
For test [7], the system named is Mus musculus. As to the kind of experiment: Antihyperglycemic activity in diabetic C57BL/KsJ-db/db mouse model assessed as decrease in plasma triglyceride level at 50 mg/kg, po for 10 days relative to control. Details: scale not given: the % may be the effect or the level left.
Test [8] relates to Mus musculus. Kind of test: Antihyperglycemic activity in diabetic C57BL/KsJ-db/db mouse model assessed as decrease in low-density lipoprotein cholesterol at 50 mg/kg, po for 10 days relative to control. Details: scale not given: the % may be the effect or the level left.
The test system of test [9] is Mus musculus. Kind of test: Antihyperglycemic activity in po dosed diabetic C57BL/KsJ-db/db mouse model assessed as decrease in postprandial blood glucose level for 10 days. The conditions noted are these: 240 h.
In test [10] the test system is Mus musculus. Kind of test: Antihyperglycemic activity in diabetic C57BL/KsJ-db/db mouse model assessed as decrease in total cholesterol at 50 mg/kg, po for 10 days relative to control. Details: scale not given: the % may be the effect or the level left.
Test [11] concerns Mus musculus. As to the kind of experiment: Antihyperglycemic activity in diabetic C57BL/KsJ-db/db mouse model assessed as decrease in very low-density lipoprotein cholesterol at 50 mg/kg, po for 10 days relative to control. The arrangement: scale not given: the % may be the effect or the level left.

Structures are written as SMILES.

With `CC1=C(C)C(=O)O[C@@H]([C@](C)(O)[C@]2(O)CC[C@@]3(O)[C@@H]4CC=C5C=CCC(=O)[C@]5(C)[C@H]4CC[C@]23C)C1`, the Activity in test [1] worked out at 20.4%; in test [2] it was 15.8%.

For `CC1=C(C)C(=O)O[C@@H]([C@](C)(O)[C@]2(O)CC[C@@]3(O)[C@@H]4CC=C5C[C@@H](O[C@@H]6O[C@H](CO)[C@@H](O)[C@H](O)[C@H]6O)CC(=O)[C@]5(C)[C@H]4CC[C@]23C)C1`, the Activity was 40.5% in test [3]; 29.8% in test [1]; 24.7% in test [4]; 44.1% in [5]; 22.7% in [6]; 14.7% in test [7]. In addition, the Activity was found to be 21.2% in test [8], 25.7% in test [10], 15.6% in [11] and 23.3% in test [2]. For the same compound, the ED50 (as a rule, the dose that gives a 50% effect, or the effect in half of the subjects) in test [9] came out at 25 mg/kg.

Consider `CC1=C(C)C(=O)O[C@@H]([C@](C)(O)[C@]2(O)C[C@H](O)[C@@]3(O)[C@@H]4CC=C5CC=CC(=O)[C@]5(C)[C@H]4CC[C@@]32C)C1` [COAGULANOLIDE], for which the Activity in test [1] came to 28.1%; in test [2] it was 14.7%.

As for `CC(C)OC(=O)C(C)(C)Oc1ccc(C(=O)c2ccc(Cl)cc2)cc1` [FENOFIBRATE], the Activity in [4] is recorded as 12.4%; in [7], 16.2%; in [8] it was 24.5%; in test [10], 30.8%; in test [11], 21.6%.

For `CC1=C(C)C(=O)O[C@@H]([C@](C)(O)[C@]2(O)CC[C@@]3(O)[C@@H]4CC=C5CC=CC(=O)[C@]5(C)[C@H]4CC[C@]23C)C1` [WITHANOLIDE F], the Activity is on record as 24.9% in test [1] and 18.2% in test [2].

For `CN(C)C(=N)NC(=N)N` [METFORMIN], the Activity in test [3] worked out at 24.8%; in [1] it was 26.4%; in [5], 24.8%; in test [6], 18.6%; in [2], 17.1%.

Consider `CC1=C(C)C(=O)O[C@@H]([C@]2(C)O[C@@]34CC[C@]2(O)[C@@]3(C)CC[C@H]2[C@H]4CC=C3CC=CC(=O)[C@@]32C)C1` [COAGULIN C], for which the Activity in [1] was determined as 22.8%; in [2] it was 16.9%.
